Assay results published in PubChem BioAssay AID330 (DTP/NCI, 2004).
Where “and” joins values, the source holds several entries; their conditions need not be identical. Identical values can stand only once. Inconclusive results and toxic doses are left out. The calls were made as follows: active = survival T/C of 150% or more; inactive = T/C below 125% in these data.

Tested on: P388 leukemia ip, CD2F1 mice, survival T/C
Experiment: NCI In Vivo Anticancer Drug Screen. Data for tumor model P388 Leukemia (intraperitoneal) in CD2F1 (CDF1) mice
Conditions: endpoint: median survival time, higher = longer survival
How it was run: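 Mice carrying the transplanted tumor received test compound or vehicle. Survival was recorded in each group, and the value is the treated-group measurement divided by that of the vehicle-treated control group.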

[1] = dose: 6.25 mg/kg/injection, schedule: Q01DX009 (ip), vehicle: saline
[2] = dose: 12.5 mg/kg/injection, schedule: Q01DX009 (ip), vehicle: saline
[3] = dose: 25.0 mg/kg/injection, schedule: Q01DX009 (ip), vehicle: saline
[4] = dose: 50.0 mg/kg/injection, schedule: Q01DX009 (ip), vehicle: saline with Tween-80
[5] = dose: 50.0 mg/kg/injection, schedule: Q01DX009 (ip), vehicle: saline
[6] = dose: 100.0 mg/kg/injection, schedule: Q01DX009 (ip), vehicle: saline with Tween-80
[7] = dose: 200.0 mg/kg/injection, schedule: Q01DX009 (ip), vehicle: saline with Tween-80
[8] = dose: 60.0 mg/kg/injection, schedule: Q01DX005 (ip), vehicle: saline with Tween-80
[9] = dose: 120.0 mg/kg/injection, schedule: Q01DX005 (ip), vehicle: saline with Tween-80
[10] = dose: 240.0 mg/kg/injection, schedule: Q01DX005 (ip), vehicle: saline with Tween-80
[11] = dose: 50.0 mg/kg/injection, schedule: Q01DX005 (ip), vehicle: Klucel (hydroxypropylcellulose) (HPC)
[12] = dose: 100.0 mg/kg/injection, schedule: Q01DX005 (ip), vehicle: Klucel (hydroxypropylcellulose) (HPC)
[13] = dose: 200.0 mg/kg/injection, schedule: Q01DX005 (ip), vehicle: Klucel (hydroxypropylcellulose) (HPC)
[14] = dose: 50.0 mg/kg/injection, schedule: Q01DX005 (ip), vehicle: saline
[15] = dose: 25.0 mg/kg/injection, schedule: Q01DX005 (ip), vehicle: Klucel (hydroxypropylcellulose) (HPC)
[16] = dose: 50.0 mg/kg/injection, schedule: Q01DX009 (ip), vehicle: Klucel (hydroxypropylcellulose) (HPC)
[17] = dose: 100.0 mg/kg/injection, schedule: Q01DX009 (ip), vehicle: Klucel (hydroxypropylcellulose) (HPC)
[18] = dose: 200.0 mg/kg/injection, schedule: Q01DX009 (ip), vehicle: Klucel (hydroxypropylcellulose) (HPC)
[19] = dose: 50.0 mg/kg/injection, schedule: Q01DX005 (ip), vehicle: saline with Tween-80
[20] = dose: 100.0 mg/kg/injection, schedule: Q01DX005 (ip), vehicle: saline with Tween-80

Measured: T/C

CCN(CC)c1nc(N)nc(N)n1
inactive: [1] 106 % of control | dose: 12.5 mg/kg/injection, schedule: Q01DX009 (ip), vehicle: saline with Tween-80 107 % of control | [2] 103 % of control | dose: 25.0 mg/kg/injection, schedule: Q01DX009 (ip), vehicle: saline with Tween-80 103 % of control | [3] 107 % of control and 94 % of control | [4] 107 % of control and 94 % of control | [5] 100 % of control | [6] 101 % of control | dose: 100.0 mg/kg/injection, schedule: Q01DX009 (ip), vehicle: saline 97 % of control | [7] 88 % of control

CCc1c[nH]c(C=O)c1CC
inactive: [8] 100 % of control | [9] 100 % of control | [10] 99 % of control

Oc1c(CN2CCCC2)cc(Nc2nccc(/C=C/c3ccc(Cl)cc3)n2)cc1CN1CCCC1
inactive: [1] 106 % of control | [2] 106 % of control | [3] 110 % of control | [5] 114 % of control

C=C(F)F
inactive: [11] 95 % of control | [12] 101 % of control | [13] 103 % of control

c1ccc(C(=C2C(=C(c3ccccc3)c3ccccc3)c3nc4ccccc4nc32)c2ccccc2)cc1
inactive: dose: 7.5 mg/kg/injection, schedule: Q01DX005 (ip), vehicle: saline with Tween-80 90 % of control | dose: 15.0 mg/kg/injection, schedule: Q01DX005 (ip), vehicle: saline with Tween-80 88 % of control | [8] 86 % of control | [9] 87 % of control | [10] 90 % of control

OC1CCC(O)C1 (configuration not stated)
inactive: [14] 100 % of control | dose: 100.0 mg/kg/injection, schedule: Q01DX005 (ip), vehicle: saline 105 % of control | dose: 200.0 mg/kg/injection, schedule: Q01DX005 (ip), vehicle: saline 98 % of control

CCCCCC(CN(C)C)C(O)/C=C/c1ccc(Cl)c(Cl)c1 (configuration not stated)
inactive: [2] 109 % of control | [3] 107 % of control

[CH3][Bi]1[O]C(=O)c2ccccc2[S]1
inactive: [15] 99 % of control and 102 % of control and 97 % of control

Cc1n[nH]c(=O)[nH]c1=O
inactive: dose: 100.0 mg/kg/injection, schedule: Q04DX003 (ip), vehicle: Klucel (hydroxypropylcellulose) (HPC) 100 % of control | dose: 200.0 mg/kg/injection, schedule: Q04DX003 (ip), vehicle: Klucel (hydroxypropylcellulose) (HPC) 100 % of control | dose: 400.0 mg/kg/injection, schedule: Q04DX003 (ip), vehicle: Klucel (hydroxypropylcellulose) (HPC) 90 % of control

c1cc2cc(C3=NCCN3)[nH]c2cc1C1=NCCN1
inactive: dose: 12.5 mg/kg/injection, schedule: Q01DX005 (ip), vehicle: saline 98 % of control | dose: 25.0 mg/kg/injection, schedule: Q01DX005 (ip), vehicle: saline 103 % of control | [14] 99 % of control

O=C(Oc1ccc2c(=O)cc(-c3ccccc3)oc2c1OC(=O)c1ccccc1)c1ccccc1
inactive: [8] 94 % of control | [9] 93 % of control | [10] 90 % of control

O=C(O)c1ccc(C(=O)N(CCP(c2ccccc2)c2ccccc2)CCP(c2ccccc2)c2ccccc2)cc1C(=O)O
inactive: [16] 110 % of control | [17] 90 % of control | [18] 94 % of control

Nc1ncncc1-c1ccc2ccccc2c1
inactive: [16] 95 % of control | [17] 92 % of control | [18] 96 % of control

O=C(Cc1ccncc1)c1cccnc1
inactive: dose: 12.5 mg/kg/injection, schedule: Q01DX001 (ip), vehicle: saline 101 % of control | dose: 25.0 mg/kg/injection, schedule: Q01DX001 (ip), vehicle: saline 102 % of control | dose: 50.0 mg/kg/injection, schedule: Q01DX001 (ip), vehicle: saline 107 % of control | dose: 100.0 mg/kg/injection, schedule: Q04DX002 (ip), vehicle: saline 98 % of control | dose: 200.0 mg/kg/injection, schedule: Q04DX002 (ip), vehicle: saline 99 % of control | dose: 400.0 mg/kg/injection, schedule: Q04DX002 (ip), vehicle: saline 105 % of control

CCN(CC)c1c(C)c(C(=O)OC)nn1-c1ccccc1
inactive: [8] 107 % of control | [9] 104 % of control | [10] 96 % of control

CC(=O)N(C)OS(=O)(=O)c1ccc(C)cc1
inactive: dose: 50.0 mg/kg/injection, schedule: Q01DX001 (ip), vehicle: saline with Tween-80 102 % of control | dose: 100.0 mg/kg/injection, schedule: Q01DX001 (ip), vehicle: saline with Tween-80 105 % of control | dose: 200.0 mg/kg/injection, schedule: Q01DX001 (ip), vehicle: saline with Tween-80 105 % of control | dose: 400.0 mg/kg/injection, schedule: Q01DX001 (ip), vehicle: saline with Tween-80 95 % of control

COC(=O)NC1=Nc2ccc(Cl)cc2NS1
inactive: dose: 12.5 mg/kg/injection, schedule: Q01DX005 (ip), vehicle: Klucel (hydroxypropylcellulose) (HPC) 102 % of control | [15] 100 % of control | [11] 112 % of control and 97 % of control

CC1CN2CCOC2(C)O1 (configuration not stated)
inactive: dose: 60.0 mg/kg/injection, schedule: Q01DX005 (ip), vehicle: saline 106 % of control | dose: 120.0 mg/kg/injection, schedule: Q01DX005 (ip), vehicle: saline 102 % of control | dose: 240.0 mg/kg/injection, schedule: Q01DX005 (ip), vehicle: saline 101 % of control

CC1(O)c2ccccc2C(C)(O)c2c1ccc1ccccc21 (configuration not stated)
inactive: [19] 95 % of control | [20] 87 % of control

CSc1ncc(C=O)n1Cc1ccccc1
inactive: dose: 17.5 mg/kg/injection, schedule: Q01DX005 (ip), vehicle: Klucel (hydroxypropylcellulose) (HPC) 115 % of control | dose: 35.0 mg/kg/injection, schedule: Q01DX005 (ip), vehicle: Klucel (hydroxypropylcellulose) (HPC) 98 % of control | dose: 70.0 mg/kg/injection, schedule: Q01DX005 (ip), vehicle: Klucel (hydroxypropylcellulose) (HPC) 101 % of control

CN1C=C/C(=C/[N+](=O)[O-])N(C)C1=O
inactive: [15] 99 % of control | [11] 105 % of control | [12] 100 % of control | [13] 112 % of control

Cn1c(=O)ccc2c(=O)c3c(ccc4ccccc43)oc21
inactive: [19] 94 % of control | [20] 92 % of control | dose: 200.0 mg/kg/injection, schedule: Q01DX005 (ip), vehicle: saline with Tween-80 91 % of control

Cc1ccc2occ(/C=N/NC(N)=S)c(=O)c2c1
inactive: [19] 90 % of control | [20] 97 % of control

O=C(O)CSCSCC(=O)O
inactive: dose: 100.0 mg/kg/injection, schedule: Q04DX003 (ip), vehicle: saline 100 % of control | dose: 200.0 mg/kg/injection, schedule: Q04DX003 (ip), vehicle: saline 104 % of control

CSCC(NP1(=O)SC(NN=C2CCCCC2)=NC1(C)C)C(=O)O (configuration not stated)
inactive: [8] 100 % of control | [9] 100 % of control | [10] 100 % of control

CN1C=NNC(=O)c2ccccc21
inactive: [4] 86 % of control | [6] 87 % of control | [7] 102 % of control
